In patent US5547856A, “Hepatocyte growth factor variants” (Genentech, Inc., priority 1993, dated 1996):
Entries after “also recorded” stand apart in the source; their conditions may differ.

How the values were obtained:
[1] = test system: rat hepatocytes in primary culture; assay: Mitogenic assay: induction of DNA synthesis (3H-TdR incorporation) of rat hepatocytes in primary culture; type: cell-based; conditions: for SA +/- mut/wt: Table 3, alterations near or within the hairpin domain; for SA +/- mut/wt / SA mut/wt +/- SD / SA var/SA wt +/-S.D.: * = did not reach the same absolute level as wild-type huHGF; for SA mut/wt +/- SD: Table 2, specific mitogenic activity relative to wt rhuHGF; for residual SA compared to WT rhuHGF: % of WT rhuHGF specific activity; for SA var/SA wt +/-S.D.: Table 1, specific mitogenic activity of variant relative to WT rhuHGF, at least three independent assays
Procedure: The biological activity of WT huHGF and variants was measured by their abilities to induce DNA synthesis of rat hepatocytes in primary culture. […] Briefly, the livers of female Sprague Dawley rats (160-180 g) were perfused through the portal vein with 100 mL of Ca^++ free Hepes buffered saline containing 0.02% Collagenase type IV (Sigma). After 20 minutes the liver was removed, placed in buffer, gently stirred to separate hepatocytes from connective tissue and blood vessels, and filtered through nylon mesh. Cells were then washed by centrifugation, resuspended at 1×10^5 cells/mL in Williams Media E (Gibco) containing Penicillin (100 U/ml), Streptomycin ([…]), L-Glutamine (2 mM), trace elements (0.01%), transfertin ([…]) and Aprotinin ([…]). […] After 48 hours incubation at 37° C., 0.5 mCi 3H-TdR (15 Ci/mmole, Amersham) was added to each well and incubated for an additional 16 hours. Cells were harvested on filter papers, which were washed, dried and counted in a Beckman counter after addition of scintillation liquid. For each huHGF variant, the specific activity (SA) expressed in units/mg was calculated at half-maximal proliferation (defined as 1 unit/mL) using the HGF concentration obtained in ELISA.

[2] = molecular target: extracellular domain of the human HGF receptor (huHGFr) fused to the Fc constant region of an human IgG; assay: Soluble HGF receptor competitive binding assay (displacement of 125I-rhuHGF); conditions: for Kdwt/mut: Table 2, Kd ratio wild type/mutant; for Kdwt/Kdvar +/-S.D.: Table 1, receptor binding capacity relative to WT rhuHGF, at least three independent assays; for receptor binding / Kd (in words): compared to WT rhuHGF; for Kd: binding to HGF receptor:IgG fusion protein, calculated at the IC50 from fitted inhibition curves
Procedure: The coding sequence of the extracellular domain of the huHGFr was fused to those of the human IgGl heavy chain in a two-step process. […] The 5' primer (located in the vector upstream of the HeFr coding sequences) and the 3' primer (5'-[…]-3') (SEQ. ID. NO: 21) were used in a 100 μl reaction as described above except that the extension time at 72° C. was 3 minutes, and 40 ng of the full length HGFr expression vector was used as template. […] Sequencing of the construct was carried out as described above.
The binding assay was performed in breakable microtiter plates (Nunc) coated o/n at 4° C. with […] of rabbit-anti-human IgG Fc specific antibody (Jackson Immunoresearch) and plates were carefully washed with PBS containing 0.05% Tween 20 (Biorad). […] To each well […] of serial dilutions (1:25-1:6000) of cell supernatants, purified CHO-expressed rhuHGF ([…]) or medium were added in duplicates. Subsequently, […] of 50 pM of HGF receptor:IgG fusion protein were added and the plates were incubated with gentle shaking. After 4 hours, when equilibrium was reached, plates were washed and wells were individually counted in a gamma-counter. The amount of nonspecifically bound radioactivity was estimated by incubating HGF receptor:IgG with a 500-fold excess of unlabelled rhuHGF.

[3] = test system: 145 kDa β-subunit of the HGF receptor in A549 cells; assay: Induction of tyrosine phosphorylation of the HGF receptor on A549 cells (Western blot); type: cell-based, human; conditions: serum-starved A549 cells, 200 ng/mL purified protein, 5 minutes
Procedure: FIG. 4: Western blot of ligand-induced tyrosine-phosphorylation on the 145 kDa β-subunit of the HGF receptor by wild-type rhuHGF, single-chain or protease domain huHGF variants. […] Molecular masses (kilodaltons) are as indicated.
Serum-starved cells were incubated without or with 200 ng/mL rhuHGF for 5 minutes at 37° C. and extracted with lysis buffer containing 50 mM Hepes, 150 mM NaCl, 1.5 mM MgCl2, 1 mM EGTA, 10% Glycerol, 1% Triton X-100 and a cocktail of protease inhibitors. The lysates were immunoprecipitated with anti-Met COOH antibodies and blotted with anti-phosphotyrosine antibodies (see Western blotting above).

[4] = test system: cell surface receptor on hepatocytes; conditions: Higuchi and Nakamura 1991; cited from earlier work

| Kdwt/mut [2] | Substance | SA +/- mut/wt [1] | SA mut/wt +/- SD [1] | other results |
| --- | --- | --- | --- | --- |
|  | D54A: huHGF variant with alteration near or within the hairpin domain | 0.13 +/- 0.01 |  |  |
|  | D117A: huHGF variant with alteration near or within the hairpin domain | 0.02 |  |  |
|  | E115A: huHGF variant with alteration near or within the hairpin domain | 0.20 +/- 0.02 |  |  |
| < 0.03 | E159A: huHGF Kringle 1 domain substitution variant |  | < 0.02 |  |
| 0.05 +/- 0.02 | F162A, L163A, S165A, S166A: huHGF Kringle 1 domain substitution variant |  | < 0.02 |  |
| 0.05 +/- 0.01 | F162A: huHGF Kringle 1 domain substitution variant |  | 0.04 +/- 0.02 |  |
|  | H114A, E115A, D117A: huHGF variant with alterations near or within the hairpin domain | < 0.02 |  |  |
|  | H114A: huHGF variant with alteration near or within the hairpin domain | 0.16 +/- 0.04 |  |  |
|  | K34A, R35A, R36A: huHGF variant with alterations near or within the hairpin domain | 0.71 +/- 0.33 |  |  |
|  | K52A, D54A: huHGF variant with alterations near or within the hairpin domain | 0.32 +/- 0.03 |  |  |
|  | K52A: huHGF variant with alteration near or within the hairpin domain | 0.19 +/- 0.03 |  |  |
|  | K58A, K60A, K62A, K63A, N65A: huHGF variant with alterations near or within the hairpin domain | 6.96 +/- 0.12 |  |  |
|  | K109A, K110A, E111A: huHGF variant with alterations near or within the hairpin domain | 0.98 +/- 0.04 |  |  |
| 0.98 +/- 0.04 | K137A: huHGF Kringle 1 domain substitution variant |  | 1.12 +/- 0.10 |  |
| 1.03 +/- 0.08 | K144A, K148A: huHGF Kringle 1 domain substitution variant |  | 0.93 +/- 0.16 |  |
| 1.10 +/- 0.04 | L163A, S165A, S166A: huHGF Kringle 1 domain substitution variant |  | 0.14 +/- 0.08 |  |
|  | N72A, R76A, N77A, K78A: huHGF variant with alterations near or within the hairpin domain | 0.04 +/- 0.07 |  |  |
| < 0.04 | N193A, E195A, R197A: huHGF Kringle 1 domain substitution variant |  | < 0.02 |  |

| Kdwt/mut [2] | Substance | SA +/- mut/wt [1] | SA mut/wt +/- SD [1] | other results |
| --- | --- | --- | --- | --- |
| 0.62 +/- 0.20 | N193A: huHGF Kringle 1 domain substitution variant |  | 0.45 +/- 0.12 |  |
| 0.21 +/- 0.03 | Q173A, E174A, N175A: huHGF Kringle 1 domain substitution variant |  | 0.33 +/- 0.07 |  |
| 0.15 +/- 0.05 | Q173A: huHGF Kringle 1 domain substitution variant |  | 0.13 +/- 0.03 |  |
|  | Q534H, Y673S, V692S: huHGF protease domain triple variant |  |  | residual SA compared to WT rhuHGF [1]: less than 3%; SA var/SA wt +/-S.D. [1]: < 0.02; Kdwt/Kdvar +/-S.D. [2]: 1.91 +/- 1.28; receptor binding / Kd (in words) [2]: not significantly different from WT rhuHGF |
|  | Q534H, Y673S: huHGF protease domain double variant |  |  | residual SA compared to WT rhuHGF [1]: less than 3%; SA var/SA wt +/-S.D. [1]: < 0.03; Kdwt/Kdvar +/-S.D. [2]: 2.24 +/- 1.11; receptor binding / Kd (in words) [2]: not significantly different from WT rhuHGF |
|  | Q534H: huHGF protease domain variant, Q534 replaced with H |  |  | SA var/SA wt +/-S.D. [1]: 1.19 +/- 0.44; Kdwt/Kdvar +/-S.D. [2]: 1.48 +/- 0.85; Kd [2]: 0.06 nM |
|  | R126A, N127A: huHGF variant with alterations near or within the hairpin domain | 0.33 +/- 0.14 |  |  |
| 0.98 +/- 0.04 | R168A: huHGF Kringle 1 domain substitution variant |  | 0.83 +/- 0.07 |  |
| 0.95 +/- 0.04 | R181A, E183A, E184A: huHGF Kringle 1 domain substitution variant |  | 0.92 +/- 0.08 |  |
| < 0.03 | R197A: huHGF Kringle 1 domain substitution variant |  | < 0.01 |  |
|  | R494E |  |  | SA var/SA wt +/-S.D. [1]: < 0.02; tyrosine phosphorylation of the HGF receptor (in words) [3]: reduced ability to induce phosphorylation of the HGF receptor; also recorded: not efficient in stimulating tyrosine-phosphorylation in A549 cells; Kdwt/Kdvar +/-S.D. [2]: 0.31 +/- 0.13 |
|  | V692S: huHGF protease domain variant, V692 replaced with S |  |  | fold reduction of SA compared to wt rhuHGF [1]: ~10 fold; maximum plateau of mitogenic response [1]: approximately 50 % of wt rhuHGF plateau; SA var/SA wt +/-S.D. [1]: 0.08 +/- 0.04; Kdwt/Kdvar +/-S.D. [2]: 1.02 +/- 0.13; receptor binding / Kd (in words) [2]: Kd similar to WT rhuHGF |
| 0.77 | Y198A: huHGF Kringle 1 domain substitution variant |  | 0.88 +/- 0.06 |  |
|  | Y673S, V692S |  |  | residual SA compared to WT rhuHGF [1]: less than 3%; SA var/SA wt +/-S.D. [1]: < 0.02; tyrosine phosphorylation of the HGF receptor (in words) [3]: reduced ability to induce phosphorylation of the HGF receptor; also recorded: not efficient in stimulating tyrosine-phosphorylation in A549 cells; Kdwt/Kdvar +/-S.D. [2]: 1.76 +/- 0.63; receptor binding / Kd (in words) [2]: not significantly different from WT rhuHGF |
|  | Y673S: huHGF protease domain variant, Y673 replaced with S |  |  | fold reduction of SA compared to wt rhuHGF [1]: approximately 5 fold; maximum plateau of mitogenic response [1]: approximately 50 % of wt rhuHGF plateau; SA var/SA wt +/-S.D. [1]: 0.27 +/- 0.07; Kdwt/Kdvar +/-S.D. [2]: 1.35 +/- 0.72; receptor binding / Kd (in words) [2]: Kd similar to WT rhuHGF |
|  | huHGF: human hepatocyte growth factor as studied in the literature for binding to hepatocytes |  |  | Kd [4]: 0.024 to 0.032 nM |
| 1 | wt rhuHGF: wild-type recombinant human hepatocyte growth factor, 728 amino acid form (Miyazawa et al. 1989) [reference compound] | 1 | 1 | tyrosine phosphorylation of the HGF receptor (in words) [3]: led to the phosphorylation on tyrosine of the 145 kDa β-subunit of the HGF receptor; Kd [2]: 0.07 nM; Kd ([2]; listed as WT rhuHGF): 0.05 to 0.07 nM |
